Laboratory results reported in the NIST ThermoML archive (doi:10.1016/j.tca.2013.03.017).
Numbers after ± are expanded uncertainties.

Key:
[1] = xn = mol fraction of the nth substance listed; conditions: 101 kPa, Liquid, Hot wire method
[2] = molar heat capacity at constant pressure; xn = mol fraction of the nth substance listed; conditions: 101 kPa, Liquid, Small sample (50 mg) DSC

O=S1(=O)CCCC1 [sulfolane] + O
Conditions	molar heat capacity at constant pressure, [2] [J/K/mol]	thermal conductivity, [1] [W/m/K]
303.15 K, x1 = 0.1	87.62 ± 1.4	0.3861 ± 0.0018
303.15 K, x1 = 0.198	99.49 ± 1.5	0.296 ± 0.0014
303.15 K, x1 = 0.299	112 ± 1.7	0.2563 ± 0.0012
303.15 K, x1 = 0.397	123.4 ± 1.9	0.2358 ± 0.0011
303.15 K, x1 = 0.493	133.8 ± 2.1	0.2206 ± 0.001
303.15 K, x1 = 0.6	144.9 ± 2.2	0.2028 ± 0.001
303.15 K, x1 = 0.699	154.4 ± 2.4	0.1911 ± 0.0009
303.15 K, x1 = 0.8	163.7 ± 2.5	0.1809 ± 0.0009
303.15 K, x1 = 0.899	172.4 ± 2.7	0.1739 ± 0.0009
303.15 K, x1 = 1	181.5 ± 2.8	0.1678 ± 0.0008
313.15 K, x1 = 0.1	88.47 ± 1.4	0.3969 ± 0.0027
313.15 K, x1 = 0.198	100.9 ± 1.6	0.2979 ± 0.002
313.15 K, x1 = 0.299	113.9 ± 1.8	0.2583 ± 0.0018
313.15 K, x1 = 0.397	125.6 ± 1.9	0.2334 ± 0.0017
313.15 K, x1 = 0.493	136.4 ± 2.1	0.22 ± 0.0015
313.15 K, x1 = 0.6	148 ± 2.3	0.2012 ± 0.0015
313.15 K, x1 = 0.699	157.9 ± 2.4	0.1896 ± 0.0013
313.15 K, x1 = 0.8	167.2 ± 2.6	0.1797 ± 0.0013
313.15 K, x1 = 0.899	176 ± 2.7	0.1719 ± 0.0013
313.15 K, x1 = 1	185.1 ± 2.9	0.1656 ± 0.0012
323.15 K, x1 = 0.1	89.1 ± 1.4	0.4026 ± 0.0026
323.15 K, x1 = 0.198	102.2 ± 1.6	0.2965 ± 0.0019
323.15 K, x1 = 0.299	115.3 ± 1.8	0.2558 ± 0.0016
323.15 K, x1 = 0.397	127.5 ± 2	0.2316 ± 0.0016
323.15 K, x1 = 0.493	138.8 ± 2.2	0.2167 ± 0.0014
323.15 K, x1 = 0.6	150.6 ± 2.3	0.1993 ± 0.0013
323.15 K, x1 = 0.699	160.9 ± 2.5	0.1883 ± 0.0013
323.15 K, x1 = 0.8	170.9 ± 2.6	0.1788 ± 0.0011
323.15 K, x1 = 0.899	179.7 ± 2.8	0.1715 ± 0.0011
323.15 K, x1 = 1	188.7 ± 2.9	0.1634 ± 0.0011
333.15 K, x1 = 0.1	89.75 ± 1.4	0.4084 ± 0.0026
333.15 K, x1 = 0.198	103.6 ± 1.6	0.295 ± 0.0019
333.15 K, x1 = 0.299	117.3 ± 1.8	0.2507 ± 0.0016
333.15 K, x1 = 0.397	129.9 ± 2	0.2304 ± 0.0014
333.15 K, x1 = 0.493	141.5 ± 2.2	0.2133 ± 0.0014
333.15 K, x1 = 0.6	153.8 ± 2.4	0.1986 ± 0.0013
333.15 K, x1 = 0.699	164.5 ± 2.5	0.1876 ± 0.0011
333.15 K, x1 = 0.8	174.3 ± 2.7	0.1779 ± 0.0011
333.15 K, x1 = 0.899	183.3 ± 2.8	0.1699 ± 0.0011
333.15 K, x1 = 1	192.3 ± 3	0.1616 ± 0.0011
343.15 K, x1 = 0.1	90.42 ± 1.4	0.4085 ± 0.0025
343.15 K, x1 = 0.198	104.5 ± 1.6	0.2893 ± 0.0017
343.15 K, x1 = 0.299	118.5 ± 1.8	0.2417 ± 0.0014
343.15 K, x1 = 0.397	131.7 ± 2	0.2229 ± 0.0014
343.15 K, x1 = 0.493	143.5 ± 2.2	0.2092 ± 0.0013
343.15 K, x1 = 0.6	155.8 ± 2.4	0.1966 ± 0.0012
343.15 K, x1 = 0.699	166.4 ± 2.6	0.1852 ± 0.0011
343.15 K, x1 = 0.8	176.4 ± 2.7	0.1765 ± 0.0011
343.15 K, x1 = 0.899	185.6 ± 2.9	0.1676 ± 0.0011
343.15 K, x1 = 1	194.3 ± 3	0.1593 ± 0.0011
353.15 K, x1 = 0.1	91.42 ± 1.4	0.4058 ± 0.0023
353.15 K, x1 = 0.198	106.2 ± 1.6	0.287 ± 0.0017
353.15 K, x1 = 0.299	120.8 ± 1.9	0.2399 ± 0.0014
353.15 K, x1 = 0.397	134 ± 2.1	0.2185 ± 0.0012
353.15 K, x1 = 0.493	146.1 ± 2.3	0.204 ± 0.0012
353.15 K, x1 = 0.6	158.8 ± 2.5	0.1921 ± 0.0012
353.15 K, x1 = 0.699	169.6 ± 2.6	0.1817 ± 0.0011
353.15 K, x1 = 0.8	179.9 ± 2.8	0.173 ± 0.001
353.15 K, x1 = 0.899	189.2 ± 2.9	0.1657 ± 0.001
353.15 K, x1 = 1	197.8 ± 3.1	0.1581 ± 0.0009
